One assay has as its target T1, CDK1/CycB (Homo sapiens, UniProt P06493).
T1 construct: GST; purchased ProQinase GmbH, Freiburg; host or cells: baculovirus-infected insect cells (Sf9)
As to the kind of experiment: CDK1/CycB kinase assay. The format is biochemical. The note with it: Table I. How it is done: Recombinant CDK1- and CycB-GST fusion proteins, purified from baculovirus-infected insect cells (Sf9), were purchased from ProQinase GmbH, Freiburg. Histone IIIS, which was used as a kinase substrate, is commercially available from the Sigma Company.
CDK1/CycB (200 ng/measuring point) was incubated for 15 minutes at 22° C. in the presence of various concentrations of test substances (0 μm, as well as within the range of 0.01-100 μm) in assay buffer [50 mmol of tris/HCl, pH 8.0, 10 mmol of MgCl2, 0.1 mmol of Na ortho-vanadate, 1.0 mmol of dithiothreitol, 0.5 μm of adenosine triphosphate (ATP), 10 μg/measuring point of histone IIIS, 0.2 μCi/measuring point of 33P-gamma ATP, 0.05% NP40, 12.5% dimethyl sulfoxide]. The reaction was stopped by adding EDTA solution (250 mmol, pH 8.0, 14 μl/measuring point).
From each reaction batch, 10 μl was applied to P30 filter strips (Wallac Company), and non-incorporated 33P-ATP was removed by three washing cycles of the filter strips for 10 minutes each in 0.5% phosphoric acid. After the filter strips were dried for 1 hour at 70° C., the filter strips were covered with scintillator strips (MeltiLex™ A, Wallac Company) and baked for one hour at 90° C. The amount of incorporated 33P (substrate phosphorylation) was determined by scintillation measurement in a gamma-radiation measuring device (Wallac).

In another assay the test system is H460. As to the kind of experiment: Proliferation assay H460. The format is cell-based. The note with it: Homo sapiens, NCI-H460, 96 h; Table II; 4 days incubation, crystal violet. An excerpt: (§1) Cultivated human tumor cells (MCF7, […] human breast cancer cells, relative to ATCC HTB22; NCI-H460, human non-small-cell lung cancer cells, ATCC HTB-177, HCT 116, human colon cancer cells, ATCC CCL-247; DU 145, hormone-independent human prostate cancer cells, ATCC HTB-81; MaTu-MDR, hormone-independent, multiple pharmaceutical agent-resistant human breast cancer cells, EPO-GmbH, Berlin) were flattened out at a density of about 5000 cells/measuring point, depending on growth rates of the respective cells in a 96-well multititer plate in 200 μl of the corresponding growth medium. After 24 hours, the cells of one plate (zero-point plate) were colored with crystal violet (see below), while the medium of the other plates was replaced by fresh culture medium (200 μl), to which the test substances were added at various concentrations (0 μmol, as well as in the range of 0.01-30 μmol; the final concentration of the solvent dimethyl sulfoxide was 0.5%). The cells were incubated for 4 days in the presence of test substances. The cell proliferation was determined by coloring the cells with crystal violet: the cells were fixed by adding 20 μl/measuring point of an 11% glutaric aldehyde solution for 15 minutes at room temperature. After three washing cycles of the fixed cells with water, the plates were dried at room temperature. The cells were colored by adding 100 μl/measuring point of a 0.1% crystal violet solution (pH was set at 3 by adding acetic acid). After three washing cycles of the colored cells with water, the plates were dried at room temperature. The dye was dissolved by adding 100 μl/measuring point of a 10% acetic acid solution. The extinction was determined by photometry at a wavelength of 595 nm. The change of cell growth, in percent, was calculated by standardization of the measured values to the extinction values of the zero-point plate (=0%) and the extinction of the untreated (0 μm) cells (=100%).

A further assay concerns MaTu-ADR. As to the kind of experiment: Proliferation assay MaTu-ADR. The format is cell-based. To be noted: Homo sapiens, 96 h, read-out: Proliferation IC50 MaTu-ADR.
Source text: as §1

The target of assay [1] is T2, VEGF Receptor tyrosine kinase-2 (Homo sapiens, UniProt P35968).
T2 construct: GST; made in house; host or cells: baculovirus-infected insect cells (Sf9)
As to the kind of experiment: VEGF Rezeptor-2 kinase assay. The note with it: Table I; read-out: VEGF-R2 IC50. Format: biochemical. How it is done: VEGF Rezeptor-2 Kinase Assay
Recombinant VEGF Receptor tyrosine kinase-2 was purified as GST-fusion protein from baculovirus-infected insect cells (Sf9). Poly-(Glu4Tyr), which was used as a kinase substrate, was purchased from the Sigma Company.
VEGF Receptor tyrosine kinase (90 ng/measuring point) was incubated for 10 minutes at 22° C. in the presence of various concentrations of test substances (0 μmol, as well as within the range of 0.001-30 μM) in 30 μl of assay buffer [40 mmol of Tris/HCl […], 10 mmol of MgCl2, 1 mmol of MnCl2, 3 μmol of Na orthovanadate, 1.0 mmol of dithiothreitol, 8 μmol of adenosine trisphosphate (ATP), 27 μg/measuring point of poly-(Glu4Tyr), 0.2 μCi/measuring point of ^33P-gamma ATP, 1% dimethyl sulfoxide]. The reaction was stopped by adding EDTA solution (250 mmol, pH 7.0, 10 μl/measuring point).
From each reaction batch, 10 μl was applied to P30 filter strips (Wallac Company), and non-incorporated 33P-ATP was removed by subjecting the filter strips to three washing cycles for 10 minutes each in 0.5% phosphoric acid. After the filter strips were dried for 1 hour at 70° C., the filter strips were covered with scintillator strips (MeltiLex™ A, Wallac Company) and baked on for 1 hour at 90° C. The amount of incorporated 33P (substrate phosphorylation) was determined by scintillation measurement in a gamma-radiation measuring device (Wallac).

The next assay relates to DU145. Nature of the assay: Proliferation assay DU145. The format is cell-based. To be noted: Homo sapiens, DU-145, 96 h; Table II; 4 days incubation, crystal violet.
Source text: as §1

Another assay deals with T3, CDK2/CycE (Homo sapiens, UniProt P24941).
T3 construct: GST; purchased ProQinase GmbH, Freiburg; host or cells: baculovirus-infected insect cells (Sf9)
As to the kind of experiment: CDK2/CycE kinase assay. Format: biochemical. How it is done:
Recombinant CDK2- and CycE-GST-fusion proteins, purified from baculovirus-infected insect cells (Sf9), were purchased from ProQinase GmbH, Freiburg. Histone IIIS, which was used as a kinase substrate, was purchased from the Sigma Company.
The reaction was stopped by adding EDTA solution (250 mmol, pH 8.0, 14 μl/measuring point).
From each reaction batch, 10 μl was applied to P30 filter strips (Wallac Company), and non-incorporated ^33P-ATP was removed by subjecting the filter strips to three washing cycles for 10 minutes each in 0.5% phosphoric acid. After the filter strips were dried for one hour at 70° C., the filter strips were covered with scintillator strips (MeltiLex™ A, Wallac Company) and baked for one hour at 90° C. The amount of incorporated ^33P (substrate phosphorylation) was determined by scintillation measurement in a gamma-radiation measuring device (Wallac).

For a further assay, the system named is MCF7. Nature of the assay: Proliferation assay MCF7. Format: cell-based. The note with it: Homo sapiens, MCF7, 96 h, 4 days incubation, crystal violet.
Source text: as §1

A further assay deals with HCT116. As to the kind of experiment: Proliferation assay HCT116. Format: cell-based. To be noted: Homo sapiens, HCT-116, 96 h; Table II; 4 days incubation, crystal violet.
Source text: as §1

Setting [2] is: Table II, 4 days incubation, crystal violet.
[3] abbreviates: Table I, read-out: CDK2/CycE IC50.
Where [4] appears, read: Table II, read-out: Inhibition IC50 CDK2/CycE.
Where [5] appears, read: Table II, read-out: Proliferation IC50 MCF7.

Structures can show the parent of a compound that is named as a salt. Where two headings read alike, the source gives them in different places.

T2 sequence (P35968 20-1356): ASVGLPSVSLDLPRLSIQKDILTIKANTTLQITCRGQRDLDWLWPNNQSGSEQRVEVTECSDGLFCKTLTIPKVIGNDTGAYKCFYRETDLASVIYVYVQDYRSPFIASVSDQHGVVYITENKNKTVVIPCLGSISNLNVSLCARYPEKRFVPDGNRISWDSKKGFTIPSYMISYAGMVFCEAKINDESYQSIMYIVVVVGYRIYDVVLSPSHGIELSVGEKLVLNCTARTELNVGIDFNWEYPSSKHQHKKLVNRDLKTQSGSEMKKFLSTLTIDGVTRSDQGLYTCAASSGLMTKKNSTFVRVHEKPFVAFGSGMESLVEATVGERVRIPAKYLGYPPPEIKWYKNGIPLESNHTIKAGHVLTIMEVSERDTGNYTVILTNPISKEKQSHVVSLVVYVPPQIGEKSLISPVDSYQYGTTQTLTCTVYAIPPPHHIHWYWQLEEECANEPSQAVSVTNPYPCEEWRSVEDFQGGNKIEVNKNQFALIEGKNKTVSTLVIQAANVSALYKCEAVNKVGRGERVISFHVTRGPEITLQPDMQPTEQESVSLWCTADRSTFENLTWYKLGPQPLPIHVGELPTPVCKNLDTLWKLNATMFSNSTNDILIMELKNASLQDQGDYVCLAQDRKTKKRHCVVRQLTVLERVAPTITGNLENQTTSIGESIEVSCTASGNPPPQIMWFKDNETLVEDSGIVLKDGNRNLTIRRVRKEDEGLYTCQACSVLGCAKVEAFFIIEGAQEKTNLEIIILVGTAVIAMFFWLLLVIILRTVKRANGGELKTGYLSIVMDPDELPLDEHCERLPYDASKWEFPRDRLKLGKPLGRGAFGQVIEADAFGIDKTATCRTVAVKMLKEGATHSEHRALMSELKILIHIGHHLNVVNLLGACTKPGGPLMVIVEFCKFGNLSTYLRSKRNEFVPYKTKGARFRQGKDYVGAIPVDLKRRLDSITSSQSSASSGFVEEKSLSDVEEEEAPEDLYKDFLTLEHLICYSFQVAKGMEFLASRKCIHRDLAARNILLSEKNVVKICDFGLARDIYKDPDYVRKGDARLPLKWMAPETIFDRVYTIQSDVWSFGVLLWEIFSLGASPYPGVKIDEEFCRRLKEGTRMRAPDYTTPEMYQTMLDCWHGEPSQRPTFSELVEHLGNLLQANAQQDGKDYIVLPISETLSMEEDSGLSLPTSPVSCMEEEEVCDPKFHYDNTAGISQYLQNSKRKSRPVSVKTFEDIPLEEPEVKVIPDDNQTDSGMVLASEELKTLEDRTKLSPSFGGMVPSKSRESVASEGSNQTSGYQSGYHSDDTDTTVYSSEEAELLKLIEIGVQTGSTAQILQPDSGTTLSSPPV
T1 sequence (P06493 whole entry): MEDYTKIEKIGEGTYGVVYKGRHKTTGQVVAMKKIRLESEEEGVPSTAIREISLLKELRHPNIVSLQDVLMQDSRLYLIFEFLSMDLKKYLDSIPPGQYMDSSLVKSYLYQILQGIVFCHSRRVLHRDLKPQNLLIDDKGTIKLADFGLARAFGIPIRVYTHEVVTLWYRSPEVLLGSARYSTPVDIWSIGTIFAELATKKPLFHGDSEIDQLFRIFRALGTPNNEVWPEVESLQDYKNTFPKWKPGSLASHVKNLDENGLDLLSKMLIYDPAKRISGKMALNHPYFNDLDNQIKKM
T1 sequence (P14635 whole entry partner): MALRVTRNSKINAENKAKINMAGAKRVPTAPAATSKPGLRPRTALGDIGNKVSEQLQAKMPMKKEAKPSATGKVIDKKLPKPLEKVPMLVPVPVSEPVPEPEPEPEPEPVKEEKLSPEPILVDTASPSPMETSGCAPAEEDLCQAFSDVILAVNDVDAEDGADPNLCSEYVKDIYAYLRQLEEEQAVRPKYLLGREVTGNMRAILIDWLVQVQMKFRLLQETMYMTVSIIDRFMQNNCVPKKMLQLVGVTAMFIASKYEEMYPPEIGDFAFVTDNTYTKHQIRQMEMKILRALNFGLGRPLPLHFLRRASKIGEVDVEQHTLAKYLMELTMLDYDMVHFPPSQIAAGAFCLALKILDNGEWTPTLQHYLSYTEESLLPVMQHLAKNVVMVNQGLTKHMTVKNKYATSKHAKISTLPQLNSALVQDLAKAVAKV

Take `O=S1(=O)NCCC(CO)Nc2nc(ncc2Br)Nc2cccc1c2` (racemic) [Example 1.3, rac-1^5-Bromo-4-thia-2,5,9-triaza-1(2,4)-pyrimidina-3(1,3)-benzenacyclonaphane-8-methanol-4,4-dioxide Hydrochloride]: the IC50 at CDK1/CycB was 28 nM; with H460, 1700 nM; in the assay with MaTu-ADR (setting [2]), 2800 nM; in assay [1] it was < 10 nM; with DU145, 2900 nM; on CDK2/CycE (setting [3]) it was 23 nM. Besides, the IC50 came out at 23 nM on CDK2/CycE (setting [4]); 1000 nM in the assay on MCF7 (Table I, read-out: MCF7 IC50); 1000 nM in the assay on MCF7 (setting [5]); 900 nM with HCT116.
Turning to `O=S1(=O)NCCCNc2nc(ncc2Br)Nc2cccc1c2` [Example 1.1, 1^5-Bromo-4-thia-2,5,9-triaza-1(2,4)-pyrimidina-3(1,3)-benzenacyclononaphane-4,4-dioxide], the IC50 on CDK1/CycB came out at 20 nM; in the assay on H460 it was 300 nM; in the assay with MaTu-ADR it was 120 nM; in assay [1] it was 40 nM; in the assay on DU145, 2200 nM; in the assay on MCF7 (Table I, read-out: MCF7 IC50), 200 nM. Moreover, in the assay with HCT116, the IC50 came out at 200 nM.
`Nc1cc2cc(c1)S(=O)(=O)NCCCNc1nc(ncc1Br)N2` [Example 1.4, 1^5-Bromo-4-thia-2,5,9-triaza-1(2,4)-pyrimidina-3(1,3)-benzenacyclononaphan-3^5-amine-4,4-dioxides]: the IC50 in the assay on H460 amounted to 200 nM; in the assay with MaTu-ADR (setting [2]) it was 100 nM; in assay [1] it was 11 nM; in the assay with DU145, 700 nM; in the assay with MCF7 (Table I, read-out: MCF7 IC50) it was 400 nM; in the assay on MCF7 (setting [5]), 400 nM. Further, the IC50 with HCT116 was < 100 nM.
For the molecule `O=[N+]([O-])c1cc2cc(c1)S(=O)(=O)NCCCNc1nc(ncc1Br)N2` [Example 1.5, 1^5-Bromo-3^5-nitro-4-thia-2,5,9-triaza-1(2,4)-pyrimidina-3(1,3)-benzenacyclononaphane-4,4-dioxide hydrochloride], the IC50 turned out to be 28 nM against CDK1/CycB; 600 nM in the assay with H460; 600 nM in the assay on MaTu-ADR (setting [2]); 69 nM in assay [1]; 1300 nM in the assay with DU145; 900 nM in the assay with MCF7 (Table I, read-out: MCF7 IC50). The figures for the IC50 with MCF7 (setting [5]) and with HCT116 were 900 nM and 400 nM, respectively.
Regarding `NS(=O)(=O)c1ccc2cc1OCCCCNc1nc(ncc1Br)N2` [Example 8.0, 1^5-Bromo-4-oxa-2,9-diaza-1(2,4)-pyrimidina-3(1,3)-benzenacyclononaphane-3^4-sulfonamide], the IC50 at CDK1/CycB turned out to be 80 nM; in the assay with H460, 500 nM; in the assay with MaTu-ADR (setting [2]), 400 nM; in assay [1], 140 nM; with DU145, 500 nM; at CDK2/CycE (setting [3]) it was 130 nM. For the same molecule, the IC50 at CDK2/CycE (setting [4]) is 130 nM; in the assay with MCF7 (Table I, read-out: MCF7 IC50), 1300 nM; in the assay with MCF7 (setting [5]) it was 1300 nM; with HCT116, 400 nM.

(Values after patent US7312225B2, “Macrocyclic pyrimidines, their production and use as pharmaceutical agents” (Bayer Schering Pharma AG, priority 2002, dated 2007).)
